# According to patent US20210228713A1, “TLR7 PEPTIDE CONJUGATES” (Apros Therapeutics, Inc., priority 2018, published 2021):
# Residues, ends and D or L forms follow the SMILES beside them. No end group written: not given here. *: point of attachment. X1 = CCCC[C@@H](CCS(C)(=O)=O)Nc1nc(N)nc(C)c1Cc1cc(CC(=O)*)ccc1OC
# Molecular target: T1, human TLR7 (hTLR7) (Homo sapiens, UniProt Q9NYK1)
# T1 construct: host or cells: HEK293 (HEK-Blue hTLR7)
# T1 sequence (Q9NYK1 27-1049): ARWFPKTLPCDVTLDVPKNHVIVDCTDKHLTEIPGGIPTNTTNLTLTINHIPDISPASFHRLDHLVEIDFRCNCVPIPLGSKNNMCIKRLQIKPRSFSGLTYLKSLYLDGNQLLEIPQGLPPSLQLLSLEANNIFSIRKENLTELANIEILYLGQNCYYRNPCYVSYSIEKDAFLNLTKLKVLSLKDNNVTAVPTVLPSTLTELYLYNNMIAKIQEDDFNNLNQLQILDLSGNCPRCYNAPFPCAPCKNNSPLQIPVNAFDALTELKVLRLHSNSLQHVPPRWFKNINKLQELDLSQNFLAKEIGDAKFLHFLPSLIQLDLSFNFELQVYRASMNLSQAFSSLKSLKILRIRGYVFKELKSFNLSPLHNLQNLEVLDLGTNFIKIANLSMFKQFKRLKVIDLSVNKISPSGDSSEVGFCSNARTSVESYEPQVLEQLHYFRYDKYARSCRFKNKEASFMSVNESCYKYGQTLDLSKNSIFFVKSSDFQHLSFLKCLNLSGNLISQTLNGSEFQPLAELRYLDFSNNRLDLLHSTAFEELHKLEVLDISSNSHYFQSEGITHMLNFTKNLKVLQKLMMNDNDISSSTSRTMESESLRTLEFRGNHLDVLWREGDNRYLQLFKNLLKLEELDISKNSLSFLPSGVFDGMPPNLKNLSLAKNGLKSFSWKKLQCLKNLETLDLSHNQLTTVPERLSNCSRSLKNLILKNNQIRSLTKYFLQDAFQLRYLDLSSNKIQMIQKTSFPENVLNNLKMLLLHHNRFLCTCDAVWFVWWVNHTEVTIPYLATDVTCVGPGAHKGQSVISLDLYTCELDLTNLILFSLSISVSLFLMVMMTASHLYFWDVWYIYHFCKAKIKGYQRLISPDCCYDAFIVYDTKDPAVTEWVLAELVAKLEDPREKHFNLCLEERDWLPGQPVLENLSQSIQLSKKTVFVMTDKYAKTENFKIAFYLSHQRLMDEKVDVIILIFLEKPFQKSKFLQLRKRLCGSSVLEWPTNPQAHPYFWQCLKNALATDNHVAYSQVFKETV
# Experiment: HEK-Blue hTLR7 cell assay (NF-kB/AP-1 driven SEAP reporter)
# Assay type: cell-based
# Conditions: not given
# From the text: HEK-Blue™ TLR7 cells were purchased from Invivogen (San Diego, Calif.). The following description was taken from the product information sheet.
# “HEK-Blue™ hTLR7 cells are designed for studying the stimulation of human TLR7 (hTLR7) by monitoring the activation of NF-kB. HEK-Blue™ hTLR7 cells were obtained by co-transfection of the hTLR7 gene and an optimized secreted embryonic alkaline phosphatase (SEAP) reporter gene into HEK293 cells. The SEAP reporter gene is placed under the control of the IFN-b minimal promoter fused to five NF-kB and AP-1-binding sites. Stimulation with a TLR7 ligand activates NF-kB and AP-1 which induce the production of SEAP, which is detected by the HEK-Blue™ Detection cell culture medium.”
# A typical assay protocol involved the following steps:
# 1. Cells were cultured according to the product information sheet.
# 2. 10 mM compound stock in DMSO were first diluted to 3 mM and then 3-fold serially diluted using DMSO to afford a 10-pt dilution.
# 3. 3 μl of the diluted DMSO were added to 57 μl HEK-Blue™ Detection media for a further 20-fold dilution.
# 4. 10 μl of the diluted compound in assay media were added into 40 μl cell culture (in HEK-Blue™ Detection media) in 384-well plate. Final cell concentration=8,000 cells per well.
# 5. The plates were incubated at 37° C. in 5% CO2 for 16 h. SEAP was determined using a spectrophotometer at 620-655 nm.
row,Compound,EC50
1,CSCC[C@H](NC(=O)CNC(=O)[C@@H](NC(=O)[C@H](CCCNC(=N)N)NC(=O)[C@@H](NC(=O)[C@H](CC(C)C)NC(=O)[C@H](C)NC(=O)[C@H](CCCNC(=N)N)NC(=O)[C@@H](NC(=O)[C@H](CCCNC(=N)N)NC(=O)[C@H](CCC(N)=O)NC(=O)[C@H](Cc1ccc(O)cc1)NC(=O)[C@@H](NC(=O)[C@@H](NC(=O)[C@H](CC(=O)O)NC(=O)[C@H](CC(N)=O)NC(=O)[C@H](CC(C)C)NC(=O)[C@H](CC(N)=O)NC(=O)[C@H](CO)NC(=O)[C@@H](N)Cc1c[nH]cn1)[C@@H](C)O)[C@@H](C)O)[C@@H](C)O)C(C)C)[C@@H](C)O)C(=O)N[C@@H](CC(=O)O)C(=O)N1CCC[C@H]1C(=O)N[C@@H](CCCNC(=N)N)C(=O)N[C@@H](CCSC)C(=O)N[C@@H](CS)C(=O)O [AP1],> 30000 nM
2,CCCC[C@@H](CCS(C)(=O)=O)Nc1nc(N)nc(C)c1Cc1cc(CC(=O)N[C@@H](CC(C)C)C(=O)N[C@@H](CC(C)C)C(=O)N[C@H](C(=O)N[C@@H](CCCNC(=N)N)C(=O)N[C@H](C(=O)N[C@@H](CC(C)C)C(=O)N[C@H](C(=O)N[C@H](C(=O)N2CCC[C@H]2C(=O)N[C@@H](CCC(N)=O)C(=O)N[C@@H](CO)C(=O)N[C@@H](CC(C)C)C(=O)N[C@@H](CC(=O)O)C(=O)N[C@@H](CO)C(=O)N[C@@H](Cc2c[nH]c3ccccc23)C(=O)N[C@@H](Cc2c[nH]c3ccccc23)C(=O)N[C@H](C(=O)N[C@@H](CO)C(=O)N[C@@H](CC(C)C)C(=O)N[C@@H](CC(N)=O)C(=O)N[C@@H](Cc2ccccc2)C(=O)N[C@@H](CC(C)C)C(=O)NCC(=O)NCC(=O)N[C@@H](CO)C(=O)O)[C@@H](C)O)[C@@H](C)CC)[C@@H](C)O)[C@@H](C)CC)[C@@H](C)O)ccc1OC [*AP9] (X1-LLTRILTIPQSLDSWWTSLNFLGGS-OH),320 nM
3,ESLKISQAVHAAHAEINEAGREVVG [AP10],> 30000 nM
4,DTIWALSVKYGVSVQDIMSWNNLSS [AP7],> 10000 nM
5,EQLSSVSSFERFEIFPKESSWPNHN [AP11],> 30000 nM
6,CC[C@H](C)[C@H](NC(=O)[C@H](CCCCN)NC(=O)CNC(=O)[C@@H](NC(=O)[C@@H](NC(=O)[C@@H](NC(=O)[C@H](Cc1ccccc1)NC(=O)[C@H](C)NC(=O)[C@H](CCCNC(=N)N)NC(=O)CNC(=O)[C@@H]1CCCN1C(=O)CNC(=O)[C@H](CCCNC(=N)N)NC(=O)[C@H](CCC(N)=O)NC(=O)[C@@H](NC(=O)[C@H](CCCNC(=N)N)NC(=O)[C@@H](NC(=O)[C@H](CO)NC(=O)[C@H](CCCCN)NC(=O)[C@H](CCCNC(=N)N)NC(=O)[C@@H](N)CCCCN)[C@@H](C)CC)[C@@H](C)CC)C(C)C)[C@@H](C)O)[C@@H](C)CC)C(=O)NCC(=O)N[C@@H](CC(N)=O)C(=O)N[C@@H](CCSC)C(=O)N[C@@H](CCCNC(=N)N)C(=O)O [AP6],> 30000 nM

# Same assay, conditions: HEK TLR7 activity of Compound 1-peptide conjugates; read-out: EC50, Peptide - Compound 1 Conjugate
row,Compound,EC50
1,CCCC[C@@H](CCS(C)(=O)=O)Nc1nc(N)nc(C)c1Cc1cc(CC(=O)N[C@@H](CCC(=O)O)C(=O)N[C@@H](CCC(N)=O)C(=O)N[C@@H](CC(C)C)C(=O)N[C@@H](CO)C(=O)N[C@@H](CO)C(=O)N[C@H](C(=O)N[C@@H](CO)C(=O)N[C@@H](CO)C(=O)N[C@@H](Cc2ccccc2)C(=O)N[C@@H](CCC(=O)O)C(=O)N[C@@H](CCCNC(=N)N)C(=O)N[C@@H](Cc2ccccc2)C(=O)N[C@@H](CCC(=O)O)C(=O)N[C@H](C(=O)N[C@@H](Cc2ccccc2)C(=O)N2CCC[C@H]2C(=O)N[C@@H](CCCCN)C(=O)N[C@@H](CCC(=O)O)C(=O)N[C@@H](CO)C(=O)N[C@@H](CO)C(=O)N[C@@H](Cc2c[nH]c3ccccc23)C(=O)N2CCC[C@H]2C(=O)N[C@@H](CC(N)=O)C(=O)N[C@@H](Cc2c[nH]cn2)C(=O)N[C@@H](CC(N)=O)C(=O)O)[C@@H](C)CC)C(C)C)ccc1OC [*AP11] (X1-EQLSSVSSFERFEIFPKESSWPNHN-OH),300 nM
2,CCCC[C@@H](CCS(C)(=O)=O)Nc1nc(N)nc(C)c1Cc1cc(CC(=O)N[C@@H](CCC(=O)O)C(=O)N[C@@H](CO)C(=O)N[C@@H](CC(C)C)C(=O)N[C@@H](CCCCN)C(=O)N[C@H](C(=O)N[C@@H](CO)C(=O)N[C@@H](CCC(N)=O)C(=O)N[C@@H](C)C(=O)N[C@H](C(=O)N[C@@H](Cc2c[nH]cn2)C(=O)N[C@@H](C)C(=O)N[C@@H](C)C(=O)N[C@@H](Cc2c[nH]cn2)C(=O)N[C@@H](C)C(=O)N[C@@H](CCC(=O)O)C(=O)N[C@H](C(=O)N[C@@H](CC(N)=O)C(=O)N[C@@H](CCC(=O)O)C(=O)N[C@@H](C)C(=O)NCC(=O)N[C@@H](CCCNC(=N)N)C(=O)N[C@@H](CCC(=O)O)C(=O)N[C@H](C(=O)N[C@H](C(=O)NCC(=O)O)C(C)C)C(C)C)[C@@H](C)CC)C(C)C)[C@@H](C)CC)ccc1OC [*AP10] (X1-ESLKISQAVHAAHAEINEAGREVVG-OH),210 nM

# Same assay, conditions: HEK TLR7 activity of unconjugated (naked) peptides; read-out: EC50, Peptide without Compound 1
row,Compound,EC50
1,CC[C@H](C)[C@H](NC(=O)[C@H](CCCCN)NC(=O)CNC(=O)[C@@H](NC(=O)[C@@H](NC(=O)[C@H](Cc1ccccc1)NC(=O)[C@H](C)NC(=O)[C@H](CCCNC(=N)N)NC(=O)CNC(=O)[C@@H]1CCCN1C(=O)CNC(=O)[C@H](CCCNC(=N)N)NC(=O)[C@H](CCC(N)=O)NC(=O)[C@@H](NC(=O)[C@H](CCCNC(=N)N)NC(=O)[C@@H](NC(=O)[C@H](CO)NC(=O)[C@H](CCCCN)NC(=O)[C@H](CCCNC(=N)N)NC(=O)[C@@H](N)CCCCN)[C@@H](C)CC)[C@@H](C)CC)C(C)C)[C@@H](C)O)C(=O)NCC(=O)N[C@@H](CC(N)=O)C(=O)N[C@@H](CCSC)C(=O)N[C@@H](CCCNC(=N)N)C(=O)N[C@@H](CCC(N)=O)C(=O)O [AP2],> 30000 nM
2,TLTCGFADLMGYIPLVGAPLGGAAR [AP3],> 30000 nM
3,LLTRILTIPQSLDSWWTSLNFLGGS [AP9],> 30000 nM
4,CC[C@H](C)[C@H](NC(=O)[C@H](CC(C)C)NC(=O)[C@@H](NC(=O)[C@H](CC(C)C)NC(=O)[C@H](CC(C)C)NC(=O)[C@H](CC(C)C)NC(=O)CN)C(C)C)C(=O)N[C@@H](Cc1ccc(O)cc1)C(=O)N[C@@H](CC(C)C)C(=O)N[C@@H](Cc1ccc(O)cc1)C(=O)NCC(=O)N1CCC[C@H]1C(=O)N[C@@H](CO)C(=O)N[C@@H](CC(C)C)C(=O)N[C@@H](Cc1ccc(O)cc1)C(=O)N[C@@H](CCCNC(=N)N)C(=O)N[C@@H](CCCNC(=N)N)C(=O)N[C@@H](Cc1ccccc1)C(=O)N[C@@H](Cc1ccccc1)C(=O)N[C@@H](CO)C(=O)N[C@@H](CC(N)=O)C(=O)N[C@@H](CC(=O)O)C(=O)N[C@@H](CS)C(=O)N[C@@H](CS)C(=O)N[C@@H](CO)C(=O)O [AP4] (H-GLLLVLIYLYGPSLYRRFFSNDCCS-OH),> 30000 nM
5,NRFVSIFASGPSQKIQLVNNNGSWH [AP5],> 30000 nM

# Same assay, conditions: HEK-Blue hTLR7 cells, 16 h incubation, SEAP read at 620-655 nm; read-out: HEK-TLR7 EC50
row,Compound,EC50
1,CCCC[C@@H](CCS(C)(=O)=O)Nc1nc(N)nc(C)c1Cc1cc(CC(=O)NCCCC[C@H](NC(C)=O)C(=O)O)ccc1OC [Compound 1-lysine conjugate],100 nM
2,"CCCC[C@@H](CCS(C)(=O)=O)Nc1nc(N)nc(C)c1Cc1cc(CC(=O)O)ccc1OC [Compound 1, (S)-2-(3-((2-amino-4-methyl-6-((1-(methylsulfonyl)heptan-3-yl)amino)pyrimidin-5-yl)methyl)-4-methoxyphenyl)acetic acid]",100 nM
3,CCCC[C@@H](CCS(C)(=O)=O)Nc1nc(N)nc(C)c1Cc1cc(CC(=O)N[C@@H](C)C(=O)O)ccc1OC [Compound 1-alanine conjugate],100 nM
